Assay results: ChEMBL document CHEMBL4811216, “Chemotherapy for human schistosomiasis: how far have we come? What's new? Where do we go from here?” (RSC Med Chem, 2020)

Tests used:
Schistosoma japonicum = assay: Antischistosomal activity against Schistosoma japonicum assessed as worm death at 10 uM incubated for 120 hrs relative to control; type: functional; conditions: Schistosoma japonicum
Schistosoma mansoni [1] = assay: Antischistosomal activity against Schistosoma mansoni Schistosomula assessed as worm death at 10 uM incubated for 24 hrs relative to control; type: functional
Schistosoma mansoni [2] = assay: Antischistosomal activity against adult Schistosoma mansoni assessed as worm death at 10 uM incubated for 120 hrs relative to control; type: functional
[3] = biological target: T1, Thioredoxin glutathione reductase (Schistosoma mansoni, UniProt Q962Y6); assay: Inhibition of Schistosoma mansoni thioredoxin glutathione reductase incubated for 30 mins by DTNB assay
T1 sequence (Q962Y6 whole entry): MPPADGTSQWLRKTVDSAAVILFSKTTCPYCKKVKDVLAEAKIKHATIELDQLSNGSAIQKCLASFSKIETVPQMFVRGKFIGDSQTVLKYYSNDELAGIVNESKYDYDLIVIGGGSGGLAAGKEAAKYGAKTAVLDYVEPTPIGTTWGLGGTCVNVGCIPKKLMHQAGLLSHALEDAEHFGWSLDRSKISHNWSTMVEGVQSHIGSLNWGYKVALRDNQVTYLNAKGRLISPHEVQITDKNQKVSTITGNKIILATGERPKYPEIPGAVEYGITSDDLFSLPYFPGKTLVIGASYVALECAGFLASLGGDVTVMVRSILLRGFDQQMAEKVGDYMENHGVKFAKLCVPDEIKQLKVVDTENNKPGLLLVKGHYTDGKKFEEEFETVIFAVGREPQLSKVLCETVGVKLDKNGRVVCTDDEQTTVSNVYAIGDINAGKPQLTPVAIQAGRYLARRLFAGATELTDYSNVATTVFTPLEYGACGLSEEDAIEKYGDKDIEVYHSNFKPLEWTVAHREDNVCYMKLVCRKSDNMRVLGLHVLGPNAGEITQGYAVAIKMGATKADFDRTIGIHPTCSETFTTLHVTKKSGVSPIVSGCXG

Schistosoma mansoni [4] = assay: Antischistosomal activity against juvenile Schistosoma mansoni assessed as worm death at 10 uM incubated for 120 hrs relative to control; type: functional
Schistosoma mansoni [5] = assay: Antischistosomal activity against adult Schistosoma mansoni LE assessed as reduction in motor activity at 50 uM measured after 24 hrs by inverted microscopy relative to control; type: functional; design: scale not given: the % may be the effect or the level left
Schistosoma mansoni [6] = assay: Antischistosomal activity against Schistosoma mansoni Puerto-Rican incubated for 72 hrs by inverted microscopic method; type: functional, organism-based
Schistosoma mansoni [7] = assay: Antischistosomal activity against Schistosoma mansoni infected in NMRI mouse assessed as worm burden reduction at 400 mg/kg, po administered […] for 4 consecutive days and measured after 14 days relative to control; type: functional; design: scale not given: the % may be the effect or the level left; conditions: time 14 day
Schistosoma mansoni [8] = assay: microbe, parasite or virus in culture; conditions: Liberian, 72 h
Description: Antischistosomal activity against Schistosoma mansoni Liberian NTS incubated for 72 hrs by microscopic method

Schistosoma mansoni [9] = assay: Antischistosomal activity against Schistosoma mansoni Liberian infected in NMRI mouse assessed as worm burden reduction at 200 mg/kg, po measured after 14 days relative to control; type: functional; design: scale not given: the % may be the effect or the level left; conditions: time 14 day
Schistosoma mansoni [10] = assay: Antischistosomal activity against Schistosoma mansoni Puerto Rican schistosomula assessed as effect on worm motility measured after 72 hrs; type: functional, organism-based
Schistosoma mansoni [11] = assay: Antischistosomal activity against Schistosoma mansoni Puerto Rican schistosomula assessed as effect on worm phenotype measured after 72 hrs; type: functional, organism-based
Schistosoma haematobium [12] = assay: Antischistosomal activity against Schistosoma haematobium assessed as worm death at 10 uM incubated for 120 hrs relative to control; type: functional
Schistosoma mansoni [13] = assay: microbe, parasite or virus in culture; conditions: 72 h
Description: Antischistosomal activity against Schistosoma mansoni incubated for 72 hrs by inverted microscopic method

Schistosoma mansoni [14] = assay: Antischistosomal activity against Schistosoma mansoni infected in NMRI mouse assessed as worm burden reduction at 200 mg/kg, po administered as single dose and measured after 17 to 21 days relative to control; type: functional, organism-based; design: scale not given: the % may be the effect or the level left; conditions: time 17-21 day
Schistosoma haematobium [15] = assay: Antischistosomal activity against Schistosoma haematobium at 10 uM measured after 72 hrs relative to control; type: functional

Q: Which results are given for COc1ccc(C(Nc2cc(C)ccn2)c2ccc3ccc(C)nc3c2O)cc1 (stereo not given)?
A: mortality at 10 µM (Schistosoma japonicum): 56%; mortality at 10 µM (Schistosoma mansoni [1]): 20%; mortality at 10 µM (Schistosoma mansoni [2]): 53%; IC50 [3]: 0.13 µM; mortality at 10 µM (Schistosoma mansoni [4]): 24%

Q: For O[C@@H]1OC[C@@H](Cc2ccc3c(c2)OCO3)[C@@H]1Cc1ccc2c(c1)OCO2, which Activity (Schistosoma mansoni [5]) is on record?
A: >75%

Q: How did the IC50 (Schistosoma mansoni [6]) turn out when Clc1cc(Br)ccc1-c1ccc(CNCC2CCNCC2)o1 was run?
A: 6.3 µM

Q: What about the Activity (Schistosoma mansoni [7]) of the same molecule?
A: 18.7%

Q: What about the IC50 (Schistosoma mansoni [8]) of the same molecule?
A: 3.4 µM

Q: For O[C@@H](c1cc(-c2ccc(C(F)(F)F)cc2)nc(C(F)(F)F)c1)[C@@H]1CCCCN1, which Activity (Schistosoma mansoni [9]) is on record?
A: >82%

Q: Which results are given for C=C[C@](C)(O)CCC1[C@](C)(O)CC[C@H]2C(C)(C)CCC[C@]12C (stereo not given in full)?
A: IC50 (Schistosoma mansoni [10]): 12.3 µM; IC50 (Schistosoma mansoni [11]): 14.2 µM

Q: How did the mortality at 10 µM (Schistosoma japonicum) turn out when COc1ccc([N+](=O)[O-])c(S(=O)(=O)c2ccc(Cl)cc2)n1 was run?
A: 30%

Q: What about the mortality at 10 µM (Schistosoma haematobium [12]) of the same molecule?
A: 48%

Q: What about the mortality at 10 µM (Schistosoma mansoni [1]) of the same molecule?
A: 100%

Q: And the mortality at 10 µM (Schistosoma mansoni [2])?
A: 67%

Q: And the IC50 [3]?
A: 0.06 µM

Q: What about the mortality at 10 µM (Schistosoma mansoni [4]) of the same molecule?
A: 57%

Q: With CC1(C)CCC[C@]2(C)C(CC[C@@](C)(O)/C=C/c3ccc(Cl)cc3)[C@](C)(O)CC[C@@H]12 (stereo not given in full) as the molecule, how does the IC50 (Schistosoma mansoni [10]) read?
A: < 10 µM

Q: And the IC50 (Schistosoma mansoni [11])?
A: < 10 µM

Q: Which results are given for CC1(C)CCC[C@]2(C)C(CC[C@@](C)(O)/C=C/c3ccccc3)[C@](C)(O)CC[C@@H]12 (stereo not given in full)?
A: IC50 (Schistosoma mansoni [10]): < 10 µM; IC50 (Schistosoma mansoni [11]): < 10 µM

Q: For O=C(Nc1ccc(N2CCNCC2)cc1)c1ccn2ncc(-c3cccc(Cl)c3)c2n1, which IC50 (Schistosoma mansoni [13]) is on record?
A: 2 µM

Q: And the Activity (Schistosoma mansoni [14])?
A: 70.7%

Q: What about the IC50 (Schistosoma mansoni [8]) of the same molecule?
A: 0.6 µM

Q: And the Activity (Schistosoma haematobium [15])?
A: 100%

Q: For O=C(Nc1ccc(Cl)c(Cl)c1)Nc1ccc(Cl)c(Cl)c1, which Activity (Schistosoma mansoni [7]) is on record?
A: 52.5%

Q: What about the IC50 (Schistosoma mansoni [8]) of the same molecule?
A: 4.7 µM

Q: For CS(=O)(=O)c1ccc(C(=O)N(CC2CCCO2)c2nc3ccccc3s2)cc1[N+](=O)[O-] (stereo not given), which IC50 (Schistosoma mansoni [13]) is on record?
A: 3.7 µM

Q: And the Activity (Schistosoma mansoni [14])?
A: 55.2%

Q: What about the IC50 (Schistosoma mansoni [8]) of the same molecule?
A: 0.4 µM

Q: And the Activity (Schistosoma haematobium [15])?
A: 90.8%

Q: Which IC50 (Schistosoma mansoni [6]) does the source give for COc1ccc(Nc2nc(NCc3ccccc3)c3ccccc3n2)cc1 here?
A: 0.8 µM

Q: And the Activity (Schistosoma mansoni [7])?
A: 0%

Q: What about the IC50 (Schistosoma mansoni [8]) of the same molecule?
A: 2.7 µM
